# Assay results taken from ChEMBL document CHEMBL4334528, “Structure, Biosynthesis, and Bioactivity of Photoditritide from Photorhabdus temperata Meg1” (J Nat Prod, 2019).
# pIC50: −log10 of the molar value.
# Key:
# [1] = system: Trypanosoma cruzi; assay: Antitrypanosomal activity against Trypanosoma cruzi Tulahuen C4 infected in rat L6 cells measured after 96 hrs by inverted microscopy analysis; assay type: functional, organism-based; settings: Tulahuen C4, L6, 96 h
# [2] = system: Micrococcus luteus; assay: Antibacterial activity against Micrococcus luteus assessed as bacterial growth inhibition by CLSI protocol based broth microdilution assay; assay type: functional
# [3] = system: Escherichia coli; assay: Antibacterial activity against Escherichia coli OP50 assessed as bacterial growth inhibition by CLSI protocol based broth microdilution assay; assay type: functional
# [4] = system: Clavispora lusitaniae; assay: Antifungal activity against Candida lusitaniae DSM 70102 assessed as fungal growth inhibition by EUCAST method; assay type: functional
# [5] = system: Trypanosoma brucei rhodesiense; assay: Antitrypanosomal activity against Trypanosoma brucei rhodesiense STI B900 measured after 72 hrs by alamar blue dye based fluorimetry analysis; assay type: functional, organism-based; settings: STI B900, 72 h
# [6] = system: Leishmania donovani; assay: Antileishmanial activity against Leishmania donovani MHOM/ET/67/L82 measured after 72 hrs by alamar blue dye based fluorimetry analysis; assay type: functional, organism-based; settings: MHOM/ET/67/L82, 72 h
# [7] = system: Plasmodium falciparum; assay: Antiplasmodial activity against Plasmodium falciparum NF54 measured after 24 hrs in presence of [3H] hypoxanthine by liquid scintillation counter analysis; assay type: functional, organism-based
# [8] = system: L6; assay: Cytotoxicity against rat L6 cells measured after 72 hrs by alamar blue dye based fluorimetry analysis; assay type: cell-based; settings: L6, 72 h
Structure (SMILES),MIC [2],MIC [3],MIC [4],pIC50 [8],further results
N=C(N)NCCCC[C@H]1NC(=O)[C@H](Cc2c[nH]c3ccccc23)NC(=O)[C@H](Cc2ccc(O)cc2)NC(=O)[C@@H](Cc2c[nH]c3ccccc23)NC(=O)[C@@H](Cc2ccc(O)cc2)NC(=O)[C@@H](CCCCNC(=N)N)NC1=O,3 µM,24 µM,> 96 µM,4.08,pIC50 [1]: 4.15; pIC50 [5]: 4.89; pIC50 [6]: < 4.00; pIC50 [7]: 4.57
CC1(C)S[C@@H]2[C@H](NC(=O)[C@H](N)c3ccccc3)C(=O)N2[C@H]1C(=O)O [AMPICILLIN],4.2 µM,–,–,–,–
COc1cc([C@@H]2c3cc4c(cc3[C@H](O)[C@H]3COC(=O)[C@H]23)OCO4)cc(OC)c1OC [PODOFILOX],–,–,–,8.15,–
C[C@@H]1[C@H](O)[C@@H](C)/C=C/C=C/C=C/C=C/C=C/C=C/C=C/[C@H](O[C@@H]2O[C@H](C)[C@@H](O)[C@H](N)[C@@H]2O)C[C@@H]2O[C@](O)(C[C@@H](O)C[C@@H](O)[C@H](O)CC[C@@H](O)C[C@@H](O)CC(=O)O[C@H]1C)C[C@H](O)[C@H]2C(=O)O [AMPHOTERICIN B],–,–,0.42 µM,–,–
O=C(N[C@H](CO)[C@H](O)c1ccc([N+](=O)[O-])cc1)C(Cl)Cl [CHLORAMPHENICOL],–,0.6 µM,–,–,–
